The test system of one data set is islet-1^+ motoneurons. Nature of the data set: islet-1 immunostaining, motoneuron count in midbrain cultures. The note with it: 2.5 μM; DIV 1, 2 and 3. It counts as cell-based, rat. How it is done: (§1) Primary midbrain cultures were prepared from rat embryo ventral mesencephalon as described previously by Lin et al (1994). In brief, rostral mesencephalic tegmentum of embryonic day 16 rat embryos was collected in DMEM/F12 (Hyclone SH30023.01) containing 2 mM glutamine on ice, The tissue was treated with 0.1% trypsin in Hanks' balanced salt solution (HBSS, Gibco 14175-095) for 15 min at 37° C. and dissociated mechanically by mild trituration with a fire-polished glass pipet in growth medium plus 2% heat-inactivated fetal bovine serum (FBS). […]
(§2) The primary antibodies were: anti-TH monoclonal (1:400, Boehringer-Mannheim); anti-GFAP polyclonal (1:200, DAKO); anti-NSE polyclonal (1:2000, Polysciences Inc.); anti-tryptophan hydroxylase polyclonal (TPH) (1:500, Eugene Tech) and anti-islet-1 monoclonal (1:100, Developmental Studies Hybridoma Bank). […] Process-bearing TH-positive cells were counted at 100× magnification in consecutive fields covering the whole 16-mm-diameter culture well. GFAP-positive cells were counted in half the culture well. NSE-positive cells were counted in 3 photographed fields.

The subject of a further data set is TH^+ neurons. Nature of the data set: MPP^+ induced neurotoxicity in midbrain cultures. It counts as cell-based, rat. The note with it: 2 μM MPP^+ for 36 h; 2.5 μM compound; control cultures lost 48%. How it is done: FIG. 34 depicts mechanism of compound A effect in midbrain cultures. 2.5 μM compound A was added at the time of plating. (A) Compound A reduces the rate of apoptosis of TH-positive cells. *p<0.05 versus Con, Student's t test. (B) Compound A protects TH-positive cells from MPP^+ induced neurotoxicity. Cultures at DIV 4 were treated with 2 μM MPP^+ (open bars) for 36 hrs, and processed for TH staining. *p<0.05 versus corresponding cultures not treated with MPP^+ (solid bars). #p<0.05 versus corresponding cultures without Compound A, Student's t test. Data represent averages (n=3) with SD shown in error bars.
Primary midbrain cultures were prepared from rat embryo ventral mesencephalon as described previously by Lin et al (1994). […]
The primary antibodies were: anti-TH monoclonal (1:400, Boehringer-Mannheim); anti-GFAP polyclonal (1:200, DAKO); anti-NSE polyclonal (1:2000, Polysciences Inc.); anti-tryptophan hydroxylase polyclonal (TPH) (1:500, Eugene Tech) and anti-islet-1 monoclonal (1:100, Developmental Studies Hybridoma Bank). […] Process-bearing TH-positive cells were counted at 100× magnification in consecutive fields covering the whole 16-mm-diameter culture well. GFAP-positive cells were counted in half the culture well. NSE-positive cells were counted in 3 photographed fields. […]

In data set [1] the test system is midbrain dopaminergic neurons. Nature of the data set: Dopamine (DA) uptake assay in primary midbrain cultures. It counts as cell-based, rat. Summed up:
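Cultures from E16 rat ventral mesencephalon were given serial sample dilutions within 24 h of plating and grown serum-free for 7 days at 37 °C. Uptake of 50 nM [3H]DA measured for 20 min at 37 °C by scintillation; background defined with 0.5 mM GBR-12909, forskolin 25 μM as positive control.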

A further data set deals with NSE-positive cells. Nature of the data set: NSE immunostaining, total neuron count in midbrain cultures. It counts as cell-based, rat. The note with it: 2.5 μM; DIV 0, 5 or 7; versus untreated. Here is the method:
as §1, §2

In a further data set the test system is GFAP-positive cells. Nature of the data set: GFAP immunostaining, astrocyte count in midbrain cultures. It counts as cell-based, rat. Conditions: midbrain culture, DIV 7. How it is done: as §1, §2
A further data set concerns GABA-containing neurons. The experiment in a line: GABA uptake assay in midbrain cultures. It counts as cell-based, rat. Conditions: midbrain culture, DIV 8, concentration range that increased DA uptake. How it is done:
(§3) Primary midbrain cultures were prepared from rat embryo ventral mesencephalon as described previously by Lin et al (1994). In brief, rostral mesencephalic tegmentum of embryonic day 16 rat embryos was collected in DMEM/F12 (Hyclone SH30023.01) containing 2 mM glutamine on ice, The tissue was treated with 0.1% trypsin in Hanks' balanced salt solution (HBSS, Gibco 14175-095) for 15 min at 37° C. and dissociated mechanically by mild trituration with a fire-polished glass pipet in growth medium plus 2% heat-inactivated fetal bovine serum (FBS). The growth medium consisted of equal volumes of Dulbecco's minimal essential medium DMEM (Gibco 12100-046) and HAM's F12 nutrient mixture (Gibco 21700-075) supplemented with 33 mM glucose, 13 mM sodium bicarbonate, 5 mM HEPES, 2 mM glutamine, 25 μg/ml insulin, 100 μg/ml transferrin, 60 μM putrescine, 20 nM progesterone, 30 nM sodium selenite, 5 U/ml penicillin G and 5 μg/ml streptomycin. 24-well tissue culture plate was coated by adding 15 μg/ml poly-1-ornithine hydrobromide solution at 0.5 ml/well, incubated at room temperature for 1 hr. The coating solution was removed and the well washed 3 times with distilled water and one wash with HBSS. The dissociated cells were plated onto polyornithine-coated wells at 250,000-350,000 trypan blue-excluding viable cells per well in 500 μl of above medium containing 1% FBS. […]

For another data set, the system named is TH-positive neurons. Nature of the data set: TH immunostaining and count of TH-positive neurons in midbrain cultures. It counts as cell-based, rat. How it is done: as §1, §2
Data set [2] concerns serotonergic neurons of hindbrain culture. Nature of the data set: Serotonin (5-HT) uptake assay in primary hindbrain cultures. It counts as cell-based, rat.
Another data set relates to TH^+ cells. Nature of the data set: Staining for apoptotic DA neurons (TH / Hoechst 33258). It counts as cell-based, rat. Conditions: 2.5 μM added at plating; DIV 13. How it is done: as §1
To measure the percent of DA neurons undergoing apoptosis after different treatments, DIV-13 cultures (which were medium changed twice on DIV 5 and 9) were first stained with an anti-TH antibody and with FITC-conjugated goat anti-mouse secondary antibody (1:200, Jackson Lab) for 1 h at room temperature to label DA neurons. […] Cells were viewed under an inverted fluorescence microscope (Olympus) equipped with appropriate filters. Healthy and apoptotic TH^+ cells TH^+ cell numbers were counted in the entire area of each well by an observer who is blinded to the treatment.

In the next data set the test system is TPH^+ cells. The experiment in a line: TPH immunostaining in primary hindbrain cultures. It counts as cell-based, rat. Conditions: hindbrain culture, DIV 13.
A further data set relates to serotonergic neurons. Nature of the data set: Serotonin (5-HT) uptake assay in midbrain cultures. It counts as cell-based, rat. The note with it: midbrain culture, DIV 8, concentration range that increased DA uptake. Here is the method: as §3
Data set [3] deals with midbrain dopaminergic neurons. The note with it: Lin et al. 1993, 1994; cited from earlier work.

Entries after “also recorded” stand apart in the source; their conditions may differ.

For `O=C(/C=C/c1ccccc1Cl)Nc1ccc(S(=O)(=O)Nc2nccs2)cc1` [Compound A], in the data set on islet-1^+ motoneurons, the “number of islet-1^+ motoneurons” value was 115-150 % of control. Also, in the data set with TH^+ neurons, the “loss of TH^+ neurons after MPP^+” value is 20%. For the same molecule, in [1] (2.5 μM compound A added to a maximally effective concentration of GDNF), the “DA uptake on conjoint treatment with GDNF” value is given as “additive effect; also recorded: increased DA uptake above that reached by either GDNF or compound A alone; also recorded: at least as potent as that of forskolin”. Also, the activity at 2.5 µM in data set [1] (Rattus norvegicus, Neuron, compound concentration 2.5 μM, midbrain culture, read-out: DA uptake % of control) worked out at 240%. Moreover, in data set [1] (Rattus norvegicus, Neuron, DIV 6, varied between different experiments, read-out: maximal stimulation of DA uptake), the Emax was 180 to 280%. In addition, in data set [1] (dose-dependent effect, FIG. 32A, 7 DIV), the “concentration of maximal effect on DA uptake” value was “around 2.5 μM”. For the same molecule, in data set [1] (midbrain culture), the “concentration at which the compound was toxic and decreased DA uptake” value was “above 10 μM”. Also, the “stimulation of DA uptake (in words)” value in [1] (midbrain culture, 7 DIV) is given as “stimulates dopamine (DA) uptake in a dose-dependent manner”. For the same molecule, in the data set on NSE-positive cells, the NSE-positive cell numbers entry is recorded as “does not increase total number of NSE^+ cells; also recorded: indistinguishable from the non-treated control wells”. Besides, the GFAP-positive cell numbers result in the data set with GFAP-positive cells is on record as “does not affect GFAP^+ cell number; also recorded: not affected”. Also, the GABA uptake entry in the data set with GABA-containing neurons is listed as “does not lead to an increase in GABA or 5-HT uptake; also recorded: Neither GABA (FIG. 33C) nor serotonin (FIG. 33D) uptake was significantly affected”; in the data set with GABA-containing neurons (listed as CUR-162590), “little, if any, effect”. In addition, the “number of TH positive neurons (dopaminergic neuron survival)” value in the data set on TH-positive neurons (2.5-5 μM added once at the time of plating, day 7 or day 12) is reported as “promotes survival of TH^+ neurons; also recorded: about twice as many DA neurons”. Moreover, the “tyrosine hydroxylase (TH) immunoreactivity” value in the data set with TH-positive neurons (mesencephalic cultures) is “upregulated”. Also, the “cytotoxicity on the hindbrain culture (inhibition of serotonin uptake)” value in data set [2] (10 μM) is listed as “showed cytotoxicity on the hindbrain culture”. Moreover, the “serotonin uptake in hindbrain culture” value in data set [2] (DIV 8, concentrations necessary for increasing dopamine uptake in midbrain culture) was “does not change either the number of TPH^+ cells nor the amount of serotonin uptake in hindbrain cultures; also recorded: nor did it increase serotonin uptake in the hindbrain culture”. Moreover, in the data set on TH^+ cells, the “reduction of the rate of apoptosis of TH^+ cells” value is “about 50%”. In addition, the “survival / number of TPH^+ neurons” value in the data set on TPH^+ cells is reported as “does not change either the number of TPH^+ cells nor the amount of serotonin uptake in hindbrain cultures; also recorded: did not promote the survival of neurons immunoreactive for the key serotonin-synthesizing enzyme TPH”. The “serotonin (5-HT) uptake” value with serotonergic neurons is reported as “does not lead to an increase in GABA or 5-HT uptake; also recorded: Neither GABA (FIG. 33C) nor serotonin (FIG. 33D) uptake was significantly affected”; in the data set with serotonergic neurons (listed as CUR-162590) it was “little, if any, effect”.

B1: GDNF: glial cell line-derived neurotrophic factor (protein, UniProt P39905 78-211, looked up)
Glial cell line-derived …: SPDKQMAVLPRRERNRQAAAANPENSRGKGRRGQRGKNRGCVLTAIHLNVTDLGLGYETKEELIFRYCSGSCDAAETTYDKILKNLSRNRRLVSDKVGQACCRPIAFDDDLSFLDDNLVYHILRKHSAKRCGCI
Take B1: in data set [3], the “concentration at which the effect on DA uptake plateaus” value is listed as “around 1 ng/ml”.

Values taken from patent US7671077B2, “Neuroprotective small organic molecules, compositions and uses related thereto” (priority 2004, dated 2010).
